# Data reported in publication PMC4264199, “Peptide Array on Cellulose Support—A Screening Tool to Identify Peptides with Dipeptidyl-Peptidase IV Inhibitory Activity within the Sequence of α-Lactalbumin” (International Journal of Molecular Sciences, 2014).
# “And” between values parts separate entries of the source, which are not always exact repeats. Equal values may be shown once. “Also recorded” adds a separate entry of the source. Ends that are not written are not given here.
# Tests used:
# [1] = target: T1, dipeptidyl-peptidase IV (DPP-IV) (Homo sapiens, UniProt P27487); assay: DPP-IV inhibition assay on SPOT-synthesized peptides (cleaved from cellulose membrane); type: biochemical; details: for Percent inhibition of DPP-IV activity, SPOT-synthesized deca-peptides: peptides cleaved from cellulose membrane, concentration not known (semi-quantitative), averages of four determinations from two experiments
# T1 construct: purchased Creative BioMart (Shirley, NY, USA); host or cells: HEK293 human cells
# T1 sequence (P27487 whole entry): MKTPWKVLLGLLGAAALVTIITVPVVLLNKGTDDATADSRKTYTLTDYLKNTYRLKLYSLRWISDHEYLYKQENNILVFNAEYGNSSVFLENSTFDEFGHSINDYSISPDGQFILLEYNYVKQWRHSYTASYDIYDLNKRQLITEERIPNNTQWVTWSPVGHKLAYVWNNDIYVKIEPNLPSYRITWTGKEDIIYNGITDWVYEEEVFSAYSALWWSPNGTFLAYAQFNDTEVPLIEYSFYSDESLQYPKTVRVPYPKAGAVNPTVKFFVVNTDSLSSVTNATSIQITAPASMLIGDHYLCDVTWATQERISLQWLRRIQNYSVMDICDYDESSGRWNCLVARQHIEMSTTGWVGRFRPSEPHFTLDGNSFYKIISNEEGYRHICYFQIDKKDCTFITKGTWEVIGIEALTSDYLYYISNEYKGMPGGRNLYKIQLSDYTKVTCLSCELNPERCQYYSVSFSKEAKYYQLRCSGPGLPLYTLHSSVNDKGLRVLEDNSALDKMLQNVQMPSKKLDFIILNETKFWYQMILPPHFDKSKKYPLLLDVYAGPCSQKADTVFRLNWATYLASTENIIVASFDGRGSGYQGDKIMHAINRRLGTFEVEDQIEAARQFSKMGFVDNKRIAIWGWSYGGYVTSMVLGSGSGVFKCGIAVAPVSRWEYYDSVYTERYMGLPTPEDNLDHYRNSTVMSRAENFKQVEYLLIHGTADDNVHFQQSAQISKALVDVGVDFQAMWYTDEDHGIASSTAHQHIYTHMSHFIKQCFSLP
# From the text: (§1) Recombinant human dipeptidyl-peptidase IV (DPP-IV, EC 3.4.14.5, expressed in HEK293 human cells, >95% purity, activity >5500 pmoles Gly–Pro–7-amido-4-methylcoumarin/min/µg) was purchased from Creative BioMart (Shirley, NY, USA) while polyclonal goat DPP-IV antibody and polyclonal donkey anti-goat secondary antibody conjugated to horseradish peroxidase were obtained from R&D Systems (Minneapolis, MN, USA). Pierce™ ECL western blotting substrate and protein-free (TBS) blocking buffer were from Thermo Scientific (Rockford, IL, USA). Gly–Pro–p-nitroanilide (H-Gly–Pro–p-NA∙HCl) was purchased from Bachem Americas (Torrance, CA, USA). Synthesized peptides (≥95% purity) were prepared and purified by GL Biochem (Shanghai) Ltd. (Shanghai, China).
# Peptide arrays of deca-peptides spanning the entire α-lactalbumin sequence with a frame shift of one amino acid between successive sequences were prepared by Kinexus Bioinformatics Corporation (Vancouver, BC, Canada). The peptides were synthesized from the C-terminal amino acid using the SPOT technology consisting of the stepwise coupling of the Fmoc-protected amino acids and cleavage of the side chain protection groups. The α-lactalbumin-derived peptides were synthesized on trioxatridecanediamine (TOTD) and β-alanine-modified Whatman 540 cellulose membranes for the binding and inhibition assays, respectively. For the inhibition assay, the peptides were synthesized in large dots (5–7 mm in diameter) and the quality of the synthesis was verified by HPLC analysis of quality controls spots included on the membranes.
# In order to determine the effect of the SPOT-synthesized peptides on the activity of the DPP-IV enzyme, the peptides were first cleaved from the cellulose support by incubating the membranes with gaseous ammonia overnight. Peptide spots (5 mm in diameter) were then punched out using a single-hole punch and transferred into microcentrifuge tubes containing 150 µL of acetonitrile (50% in 100 mM Tris–HCl buffer pH 8.0). The peptide solution (50 µL) was pipetted into a 96-well microplate with 35 µL of the chromogenic substrate Gly–Pro–p-NA (0.29 mM in 100 mM Tris–HCl buffer pH 8.0). The mixture was pre-incubated for 10 min at 37 °C, whereupon 15 µL of DPP-IV (25 mU/mL) was added and the enzymatic reaction was carried out for 30 min at 37 °C. The reaction was then terminated by addition of 100 µL of 1 M sodium acetate buffer pH 4.0 and the absorbance of the released p-nitroaniline was measured at 405 nm using a Tecan Infinite® 200 Pro microplate reader (ESBE Scientific, Markham, ON, Canada). Positive and negative controls (DPP-IV activity with no inhibitor and no DPP-IV activity, respectively) were prepared using punched peptide-free cellulose spots from the same membrane used for peptide synthesis, and adding Tris-HCl buffer in place of the sample and in place of the sample and enzyme solution, respectively.
# One unit of DPP-IV was defined as the concentration of enzyme that releases 1 µmol per min of p-nitroaniline from Gly–Pro–p-NA (100 µM) at 37 °C and pH 8.0.
# [2] = target: T1, dipeptidyl-peptidase IV (DPP-IV); assay: DPP-IV inhibition assay on traditionally-synthesized peptides; type: biochemical; details: 250 µM of peptides (final assay concentration); averages of three determinations
# From the text: as §1
# The peptides were dissolved in a mixture of acetonitrile and H2O and further diluted in 100 mM Tris-HCl pH 8.0 buffer to the desired concentrations. In a 96-well microplate, 25 µL of sample were pre-incubated with 25 µL of 100 mM Tris-HCl pH 8.0 buffer and 35 µL of Gly–Pro–p-NA (0.29 mM in 100 mM Tris-HCl buffer pH 8.0) at 37 °C for 10 min. The enzymatic reaction was started by addition of 15 µL of DPP-IV solution (25 mU/mL) and carried out at 37 °C for 30 min. Sodium acetate buffer (1 M, pH 4.0, 100 µL) was added to stop the reaction and the absorbance of the released p-nitroaniline was measure at 405 nm using a Tecan Infinite® 200 Pro microplate reader. The positive and negative controls were prepared by using Tris-HCl buffer (100 mM, pH 8.0) in place of the sample and in place of the sample and enzyme solution, respectively.
# [3] = target: T1, dipeptidyl-peptidase IV (DPP-IV); assay: Probing of membrane-bound peptide arrays: binding of DPP-IV to deca-peptides (immunoassay, chemiluminescence); details: for Binding of DPP-IV to cellulose-bound deca-peptide (in words): peptide array on cellulose membrane, DPP-IV 10 μg/mL
# Protocol: The interaction between the DPP-IV enzyme and deca-peptides spanning the entire α-lactalbumin sequence (Table S1) was first determined by immunoassay and visualized using an enhanced chemiluminescence substrate (Figure 1).
# The membranes were first blocked with protein-free (Tris-buffered saline (TBS)) blocking buffer containing 0.05% Tween-20 for 4 h at room temperature and then incubated with DPP-IV (10 μg/mL in blocking buffer) overnight at 4 °C. The membranes were washed with TBS (50 mM Tris, 136 mM NaCl, 0.05% Tween-20, pH 8.0) four times for 15 min each, after which they were incubated with the polyclonal goat DPP-IV antibody (0.2 µg/mL) for 8 h at 4 °C. The membranes were once again washed with TBS four times for 15 min each prior to being incubated with anti-goat secondary antibody conjugated to horseradish peroxidase (0.1 µg/mL) overnight at 4 °C. Finally, the membranes were washed four more times for 15 min each; then a thin layer of chemiluminescence detection mixture, prepared according to the manufacturer’s instructions, was applied for 1 min and the luminescence generated from the spots on the membranes with bound DPP-IV was measured using a ChemiDoc™ MP system (Bio-Rad Laboratories (Canada) Ltd., Mississauga, ON, Canada).
# [4] = system: DPP-IV; details: Table S2; cited from earlier work
# [5] = target: T1, dipeptidyl-peptidase IV (DPP-IV); assay: Determination of the mode of inhibition and the inhibition constant (Ki); type: biochemical
# Protocol: The traditionally-synthesized peptides showing the highest inhibitory activity against DPP-IV were further studied for their mode of action on the enzyme as previously described with the following modifications: the substrate (25 µL) was combined with 100 mM Tris-HCl buffer pH 8.0 (35 µL) and the sample (25 µL) and pre-incubated for 10 min at 37 °C, after which the enzymatic reaction was started by addition of the DPP-IV enzyme (15 µL of a 25 mU/mL solution).
# The mode of inhibition and Ki values of the inhibitory peptides were determined by fitting the initial velocity versus substrate concentration data to nonlinear regression models using the GraphPad Prism software (version 6, GraphPad Software, San Diego, CA, USA). The Ki values are expressed as final assay concentrations.
Sequence,"Percent inhibition of DPP-IV activity, SPOT-synthesized deca-peptides [1]",inhibition at 250 µM [2],also measured
"CKDDQNPHSS [F6, CKDDQNPHSS]",15%,-3%,
"DTQAIVQNND [D4, DTQAIVQNND]",14%,2%,
"EQLTKCEVFR [A1, EQLTKCEVFR]",11%,10%,
"FHTSGYDTQA [C9, FHTSGYDTQA]",12%,2%,
"GYGGVSLPEW [B6, GYGGVSLPEW]",17%,8%,
ICNISCDKFL [G6],31%,,Binding of DPP-IV to cellulose-bound deca-peptide (in words) [3]: moderate or no binding
IPAVFKIDA,,,Reported Relationship to DPP-IV [4]: inhibitor
"IPAVFKIDAL [K7, IPAVFKIDAL]",25%,48%,Ki [5]: 156 ± 11 µM
"LAHKALCSEK [J6, LAHKALCSEK]",27%,31%,Ki [5]: 217 ± 9 µM
"LCSEKLDQWL [J11, LCSEKLDQWL]",25%,25%,Ki [5]: 217 ± 15 µM
LKPTPEGDL,,,Reported Relationship to DPP-IV [4]: inhibitors
"LKPTPEGDLE [K6, LKPTPEGDLE]",23%,24%,Ki [5]: 729 ± 128 µM
LKPTPEGDLEIL,,,Reported Relationship to DPP-IV [4]: inhibitors
"LPEWVCTTFH [C1, LPEWVCTTFH]",26%,26%,Ki [5]: 300 ± 16 µM
NDSTEYGLFQ [E1],14%,,
NKIWCKDDQN [F2],17%,,
"NNDSTEYGLF [D11, NNDSTEYGLF]",11%,,

Sequence,"Percent inhibition of DPP-IV activity, SPOT-synthesized deca-peptides [1]",inhibition at 250 µM [2],also measured
NNKIWCKDDQ [F1],22%,,
"NPHSSNICNI [F11, NPHSSNICNI]",15%,,
"QINNKIWCKD [E10, QINNKIWCKD]",6%,,
"QNNDSTEYGL [D10, QNNDSTEYGL]",14%,,
"QNPHSSNICN [F10, QNPHSSNICN]",8%,2%,
RELKDLKGYG [A10],14%,,
SCDKFLDDDL [G10],21%,,
SLPEWVCTTF [B11],9%,,
STEYGLFQIN [E3],13%,,
TEYGLFQINN [E4],9%,,
"TSGYDTQAIV [C11, TSGYDTQAIV]",14%,-1%,
"VFRELKDLKG [A8, VFRELKDLKG]",14%,3%,
VQNNDSTEYG [D9],13%,,
VSLPEWVCTT [B10],15%,,
WCKDDQNPHS [F5],29%,,"Category: inhibitory activity ([1]; class by decrease in DPP-IV activity): High inhibitory activity (High inhibitory activity refers to peptides able to cause more than 20% decrease in DPP-IV activity); % DPP-IV Inhibition Traditionally-Synthesized [2]: 51%; αKi ([5]; traditionally synthesized peptide, un-competitive inhibition, final assay concentration, average ± standard error, triplicate): 76 µM and 76 ± 5 µM; Mode of Inhibition ([5]; traditionally synthesized peptides, Lineweaver-Burk / nonlinear regression): Un-competitive; Binding of DPP-IV to cellulose-bound deca-peptide (in words) [3]: moderate or no binding; also recorded: no or only moderate interaction with DPP-IV; Category: binding ([3]; peptide array spot, relative luminescence intensity): moderate/no binding"
YGLFQINNKI [E6],11%,,
"YPSKPDNPGE [K11, YPSKPDNPGE, reference compound]",31%,25%,Ki [5]: 262 ± 17 µM

# Second part, led by results:
"Percent inhibition of DPP-IV activity, SPOT-synthesized deca-peptides [1]",Sequence,inhibition at 250 µM [2],also measured
15%,"HSQGTFTSDY [K8, reference compound]",,Binding of DPP-IV to cellulose-bound deca-peptide (in words) [3]: found to bind to DPP-IV; Reported Relationship to DPP-IV [4]: Inhibitor
16%,"IVTQTMKGLD [K5, reference compound]",,Binding of DPP-IV to cellulose-bound deca-peptide (in words) [3]: found to bind to DPP-IV; Reported Relationship to DPP-IV [4]: Weak inhibitor
17%,KKILDKVGIN [I5],,"Percent inhibition of DPP-IV activity, SPOT-synthesized deca-peptides ([1]; listed as KKILDKVGIN): less than 20%; Binding of DPP-IV to cellulose-bound deca-peptide (in words) [3]: strongest binding to DPP-IV"
19%,SEKLDQWLCE [K2],,
18%,VKKILDKVGI [I4],,"Percent inhibition of DPP-IV activity, SPOT-synthesized deca-peptides ([1]; listed as VKKILDKVGI): less than 20%; Binding of DPP-IV to cellulose-bound deca-peptide (in words) [3]: strongest binding to DPP-IV"
24%,"YAEGTFISDY [K9, reference compound]",,Binding of DPP-IV to cellulose-bound deca-peptide (in words) [3]: found to bind to DPP-IV
